{"source": "patent US12398154B2", "about": "“Azaquinazoline pan-KRas inhibitors” (Mirati Therapeutics, Inc., priority 2020, dated 2025)", "key": {"KRas G12C": {"target": "KRas G12C (Homo sapiens, UniProt P01116, G12C)", "sequence (P01116 1-169 isoform P01116-2 G12C)": "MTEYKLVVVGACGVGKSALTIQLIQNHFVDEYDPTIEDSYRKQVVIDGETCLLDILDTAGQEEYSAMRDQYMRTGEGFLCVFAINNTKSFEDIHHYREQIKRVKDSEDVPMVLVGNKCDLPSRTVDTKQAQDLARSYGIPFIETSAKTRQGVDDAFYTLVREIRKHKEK", "assay": "biochemical", "description": "(§1) The ability of a compound to bind to KRas was measured using a TR-FRET displacement assay. […] After a 60-minute incubation at room temperature, the reaction was measured using a BMG LABTECH CLARIO star Plus via TR-FRET. […] The POC values were fit to a 4-parameter IC50 equation and the IC50 value reported."}, "KRas G12A": {"target": "KRas G12A (Homo sapiens, UniProt P01116, G12A)", "sequence (P01116 1-169 isoform P01116-2 G12A)": "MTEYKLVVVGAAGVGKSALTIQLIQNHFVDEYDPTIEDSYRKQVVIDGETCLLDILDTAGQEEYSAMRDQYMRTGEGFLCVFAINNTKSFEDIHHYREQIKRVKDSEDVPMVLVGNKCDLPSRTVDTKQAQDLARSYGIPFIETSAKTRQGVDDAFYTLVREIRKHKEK", "assay": "biochemical", "description": "as §1"}, "KRas G12S": {"target": "KRas G12S (Homo sapiens, UniProt P01116, G12S)", "sequence (P01116 1-169 isoform P01116-2 G12S)": "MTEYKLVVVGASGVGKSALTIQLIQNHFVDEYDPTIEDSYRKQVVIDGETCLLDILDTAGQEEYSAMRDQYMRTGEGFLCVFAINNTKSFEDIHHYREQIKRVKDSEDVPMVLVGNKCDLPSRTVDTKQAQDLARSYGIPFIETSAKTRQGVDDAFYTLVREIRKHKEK", "assay": "biochemical", "description": "as §1"}, "KRas WT": {"target": "KRas WT (Homo sapiens, UniProt P01116)", "sequence (P01116 1-169 isoform P01116-2)": "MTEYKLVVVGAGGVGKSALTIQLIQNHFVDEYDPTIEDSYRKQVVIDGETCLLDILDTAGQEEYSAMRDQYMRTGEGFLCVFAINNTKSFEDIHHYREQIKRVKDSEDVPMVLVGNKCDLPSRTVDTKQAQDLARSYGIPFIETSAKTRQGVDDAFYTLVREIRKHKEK", "assay": "biochemical", "description": "as §1"}, "KRas Q61H": {"target": "T1, KRas Q61H (Homo sapiens, UniProt P01116, Q61H)", "T1 construct": "Biotinylated KRas (corresponding to amino acids 1-169, produced at Accelegan Inc.); biotin (biotinylated); purchased Accelegan Inc", "T1 sequence (P01116 1-169 isoform P01116-2 Q61H)": "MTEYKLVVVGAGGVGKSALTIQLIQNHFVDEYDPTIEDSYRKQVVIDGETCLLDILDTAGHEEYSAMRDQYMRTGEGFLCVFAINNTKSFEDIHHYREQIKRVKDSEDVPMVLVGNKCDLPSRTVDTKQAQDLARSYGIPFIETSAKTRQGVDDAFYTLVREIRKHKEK", "assay": "KRas binding assay (TR-FRET displacement)", "description": "as §1"}, "KRas G12R": {"target": "KRas G12R (Homo sapiens, UniProt P01116, G12R)", "sequence (P01116 1-169 isoform P01116-2 G12R)": "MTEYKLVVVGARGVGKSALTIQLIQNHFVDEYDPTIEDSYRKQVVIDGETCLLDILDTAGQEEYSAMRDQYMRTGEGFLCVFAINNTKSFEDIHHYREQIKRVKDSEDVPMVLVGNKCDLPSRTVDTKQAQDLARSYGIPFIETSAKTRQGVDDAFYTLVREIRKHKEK", "assay": "biochemical", "description": "as §1"}, "KRas G12D": {"target": "KRas G12D (Homo sapiens, UniProt P01116, G12D)", "sequence (P01116 1-169 isoform P01116-2 G12D)": "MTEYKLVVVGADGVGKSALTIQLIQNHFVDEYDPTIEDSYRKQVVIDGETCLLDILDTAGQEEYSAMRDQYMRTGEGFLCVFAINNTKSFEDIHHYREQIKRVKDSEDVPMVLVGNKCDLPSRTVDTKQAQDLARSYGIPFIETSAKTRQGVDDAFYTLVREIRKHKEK", "assay": "biochemical", "description": "as §1"}, "KRas G13D": {"target": "T2, KRas G13D (Homo sapiens, UniProt P01116, G13D)", "T2 construct": "Biotinylated KRas (corresponding to amino acids 1-169, produced at Accelegan Inc.); biotin (biotinylated); purchased Accelegan Inc", "T2 sequence (P01116 1-169 isoform P01116-2 G13D)": "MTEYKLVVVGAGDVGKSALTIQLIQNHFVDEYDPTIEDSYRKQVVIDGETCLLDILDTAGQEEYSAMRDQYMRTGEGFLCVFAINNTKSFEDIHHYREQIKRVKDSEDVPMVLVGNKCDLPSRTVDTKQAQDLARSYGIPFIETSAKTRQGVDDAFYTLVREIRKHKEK", "assay": "KRas binding assay (TR-FRET displacement)", "description": "as §1"}, "KRas G12V": {"target": "KRas G12V (Homo sapiens, UniProt P01116, G12V)", "sequence (P01116 1-169 isoform P01116-2 G12V)": "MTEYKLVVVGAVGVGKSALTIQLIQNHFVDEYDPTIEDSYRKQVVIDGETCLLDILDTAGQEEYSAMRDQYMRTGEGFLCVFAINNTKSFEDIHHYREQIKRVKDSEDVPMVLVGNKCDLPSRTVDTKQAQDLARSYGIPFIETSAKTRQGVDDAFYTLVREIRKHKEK", "assay": "biochemical", "description": "as §1"}}, "data": [{"molecule": "N#Cc1ccccc1N1CCN(c2nc(OCC34CCCN3CCC4)nc3c(F)c(-c4cccc5cccc(F)c45)ncc23)CC1", "note": "[Example 216, 2-(4-(8-fluoro-7-(8-fluoronaphthalen-1-yl)-2-((tetrahydro-1H-pyrrolizin-7a(5H)-yl)methoxy)pyrido[4,3-d]pyrimidin-4-yl)piperazin-1-yl)benzonitrile]", "values": [{"measurement": "IC50", "setting": "KRas G12C", "value": 6.3, "unit": "µM"}, {"measurement": "IC50", "setting": "KRas G12A", "value": 13.8, "unit": "µM"}, {"measurement": "IC50", "setting": "KRas G12S", "value": 41, "unit": "µM"}, {"measurement": "IC50", "setting": "KRas WT", "value": 30.9, "unit": "µM"}, {"measurement": "IC50", "setting": "KRas Q61H", "value": 83200, "unit": "nM"}, {"measurement": "IC50", "setting": "KRas G12R", "value": 2.57, "unit": "µM"}, {"measurement": "IC50", "setting": "KRas G12D", "value": "≥ 100", "unit": "µM"}, {"measurement": "IC50", "setting": "KRas G13D", "value": 59000, "unit": "nM"}, {"measurement": "IC50", "setting": "KRas G12V", "value": 17.9, "unit": "µM"}]}, {"molecule": "O=C1NCC2(CCN(c3nc(OCC45CCCN4CCC5)nc4c(F)c(-c5cccc6cccc(F)c56)ncc34)CC2)N1", "note": "[Example 217, 8-(8-fluoro-7-(8-fluoronaphthalen-1-yl)-2-((tetrahydro-1H-pyrrolizin-7a(5H)-yl)methoxy)pyrido[4,3-d]pyrimidin-4-yl)-1,3,8-triazaspiro[4.5]decan-2-one]", "values": [{"measurement": "IC50", "setting": "KRas G12C", "value": 9.88, "unit": "µM"}, {"measurement": "IC50", "setting": "KRas G12A", "value": 8.99, "unit": "µM"}, {"measurement": "IC50", "setting": "KRas G12S", "value": 11.3, "unit": "µM"}, {"measurement": "IC50", "setting": "KRas WT", "value": 14, "unit": "µM"}, {"measurement": "IC50", "setting": "KRas Q61H", "value": 19500, "unit": "nM"}, {"measurement": "IC50", "setting": "KRas G12R", "value": 7.57, "unit": "µM"}, {"measurement": "IC50", "setting": "KRas G12D", "value": 64.4, "unit": "µM"}, {"measurement": "IC50", "setting": "KRas G13D", "value": 11600, "unit": "nM"}, {"measurement": "IC50", "setting": "KRas G12V", "value": 5.16, "unit": "µM"}]}, {"molecule": "Fc1c(-c2cccc3cccc(F)c23)ncc2c(Nc3ccc4cn[nH]c4c3)nc(OCC34CCCN3CCC4)nc12", "note": "[Example 218, 8-fluoro-7-(8-fluoronaphthalen-1-yl)-N-(1H-indazol-6-yl)-2-((tetrahydro-1H-pyrrolizin-7a(5H)-yl)methoxy)pyrido[4,3-d]pyrimidin-4-amine]", "values": [{"measurement": "IC50", "setting": "KRas G12C", "value": 6.88, "unit": "µM"}, {"measurement": "IC50", "setting": "KRas G12A", "value": 14.8, "unit": "µM"}, {"measurement": "IC50", "setting": "KRas G12S", "value": 23.2, "unit": "µM"}, {"measurement": "IC50", "setting": "KRas WT", "value": 28.9, "unit": "µM"}, {"measurement": "IC50", "setting": "KRas Q61H", "value": 84800, "unit": "nM"}, {"measurement": "IC50", "setting": "KRas G12R", "value": 6.53, "unit": "µM"}, {"measurement": "IC50", "setting": "KRas G12D", "value": 65.9, "unit": "µM"}, {"measurement": "IC50", "setting": "KRas G13D", "value": "≥ 100000", "unit": "nM"}, {"measurement": "IC50", "setting": "KRas G12V", "value": 2.84, "unit": "µM"}]}, {"molecule": "Fc1c(-c2cccc3cccc(F)c23)ncc2c(NCCc3cnoc3)nc(OCC34CCCN3CCC4)nc12", "note": "[Example 219, 8-fluoro-7-(8-fluoronaphthalen-1-yl)-N-(2-(isoxazol-4-yl)ethyl)-2-((tetrahydro-1H-pyrrolizin-7a(5H)-yl)methoxy)pyrido[4,3-d]pyrimidin-4-amine]", "values": [{"measurement": "IC50", "setting": "KRas G12C", "value": 5.65, "unit": "µM"}, {"measurement": "IC50", "setting": "KRas G12A", "value": 16.2, "unit": "µM"}, {"measurement": "IC50", "setting": "KRas G12S", "value": 13.1, "unit": "µM"}, {"measurement": "IC50", "setting": "KRas WT", "value": 15, "unit": "µM"}, {"measurement": "IC50", "setting": "KRas Q61H", "value": 20200, "unit": "nM"}, {"measurement": "IC50", "setting": "KRas G12R", "value": 4.78, "unit": "µM"}, {"measurement": "IC50", "setting": "KRas G12D", "value": 65.3, "unit": "µM"}, {"measurement": "IC50", "setting": "KRas G13D", "value": 18100, "unit": "nM"}, {"measurement": "IC50", "setting": "KRas G12V", "value": 8.83, "unit": "µM"}]}, {"molecule": "Fc1c(-c2cccc3cccc(F)c23)ncc2c(N3CCCC4(COC4)C3)nc(OCC34CCCN3CCC4)nc12", "note": "[Example 220, 6-(8-fluoro-7-(8-fluoronaphthalen-1-yl)-2-((tetrahydro-1H-pyrrolizin-7a(5H)-yl)methoxy)pyrido[4,3-d]pyrimidin-4-yl)-2-oxa-6-azaspiro[3.5]nonane]", "values": [{"measurement": "IC50", "setting": "KRas G12C", "value": 8.25, "unit": "µM"}, {"measurement": "IC50", "setting": "KRas G12A", "value": 6.75, "unit": "µM"}, {"measurement": "IC50", "setting": "KRas G12S", "value": 6.31, "unit": "µM"}, {"measurement": "IC50", "setting": "KRas WT", "value": 5.57, "unit": "µM"}, {"measurement": "IC50", "setting": "KRas Q61H", "value": 7470, "unit": "nM"}, {"measurement": "IC50", "setting": "KRas G12R", "value": 8.67, "unit": "µM"}, {"measurement": "IC50", "setting": "KRas G12D", "value": 10.8, "unit": "µM"}, {"measurement": "IC50", "setting": "KRas G13D", "value": 6700, "unit": "nM"}, {"measurement": "IC50", "setting": "KRas G12V", "value": 6.07, "unit": "µM"}]}, {"molecule": "NS(=O)(=O)CC1CCCN(c2nc(OCC34CCCN3CCC4)nc3c(F)c(-c4cccc5cccc(F)c45)ncc23)C1", "note": "(stereo not drawn) [Example 221, 1-(1-(8-fluoro-7-(8-fluoronaphthalen-1-yl)-2-((tetrahydro-1H-pyrrolizin-7a(5H)-yl)methoxy)pyrido[4,3-d]pyrimidin-4-yl)piperidin-3-yl)methanesulfonamide]", "values": [{"measurement": "IC50", "setting": "KRas G12C", "value": 0.498, "unit": "µM"}, {"measurement": "IC50", "setting": "KRas G12A", "value": 0.271, "unit": "µM"}, {"measurement": "IC50", "setting": "KRas G12S", "value": 0.313, "unit": "µM"}, {"measurement": "IC50", "setting": "KRas WT", "value": 0.284, "unit": "µM"}, {"measurement": "IC50", "setting": "KRas Q61H", "value": 231, "unit": "nM"}, {"measurement": "IC50", "setting": "KRas G12R", "value": 0.191, "unit": "µM"}, {"measurement": "IC50", "setting": "KRas G12D", "value": 0.586, "unit": "µM"}, {"measurement": "IC50", "setting": "KRas G13D", "value": 308, "unit": "nM"}, {"measurement": "IC50", "setting": "KRas G12V", "value": 0.556, "unit": "µM"}]}, {"molecule": "Fc1c(-c2cccc3cccc(F)c23)ncc2c(NCc3cnn4c3OCCC4)nc(OCC34CCCN3CCC4)nc12", "note": "[Example 222, N-((6,7-dihydro-5H-pyrazolo[5,1-b][1,3]oxazin-3-yl)methyl)-8-fluoro-7-(8-fluoronaphthalen-1-yl)-2-((tetrahydro-1H-pyrrolizin-7a(5H)-yl)methoxy)pyrido[4,3-d]pyrimidin-4-amine]", "values": [{"measurement": "IC50", "setting": "KRas G12C", "value": 8.98, "unit": "µM"}, {"measurement": "IC50", "setting": "KRas G12A", "value": 17.8, "unit": "µM"}, {"measurement": "IC50", "setting": "KRas G12S", "value": 26.9, "unit": "µM"}, {"measurement": "IC50", "setting": "KRas WT", "value": 35.9, "unit": "µM"}, {"measurement": "IC50", "setting": "KRas Q61H", "value": 52900, "unit": "nM"}, {"measurement": "IC50", "setting": "KRas G12R", "value": 31.2, "unit": "µM"}, {"measurement": "IC50", "setting": "KRas G12D", "value": "≥ 100", "unit": "µM"}, {"measurement": "IC50", "setting": "KRas G13D", "value": 70100, "unit": "nM"}, {"measurement": "IC50", "setting": "KRas G12V", "value": 18.2, "unit": "µM"}]}, {"molecule": "CN(Cc1c[nH]c2ncccc12)c1nc(OCC23CCCN2CCC3)nc2c(F)c(-c3cccc4cccc(F)c34)ncc12", "note": "[Example 223, N-((1H-pyrrolo[2,3-b]pyridin-3-yl)methyl)-8-fluoro-7-(8-fluoronaphthalen-1-yl)-N-methyl-2-((tetrahydro-1H-pyrrolizin-7a(5H)-yl)methoxy)pyrido[4,3-d]pyrimidin-4-amine]", "values": [{"measurement": "IC50", "setting": "KRas G12C", "value": 1.19, "unit": "µM"}, {"measurement": "IC50", "setting": "KRas G12A", "value": 1.36, "unit": "µM"}, {"measurement": "IC50", "setting": "KRas G12S", "value": 1.8, "unit": "µM"}, {"measurement": "IC50", "setting": "KRas WT", "value": 5.6, "unit": "µM"}, {"measurement": "IC50", "setting": "KRas Q61H", "value": 8650, "unit": "nM"}, {"measurement": "IC50", "setting": "KRas G12R", "value": 0.665, "unit": "µM"}, {"measurement": "IC50", "setting": "KRas G12D", "value": 21.1, "unit": "µM"}, {"measurement": "IC50", "setting": "KRas G13D", "value": 6870, "unit": "nM"}, {"measurement": "IC50", "setting": "KRas G12V", "value": 0.93, "unit": "µM"}]}]}
